{"source": "patent US20090306023A1", "about": "“STABLE ORGANIC PEROXIDE COMPOSITIONS” (priority 2005, published 2009)", "origin": "cited, not measured here", "settings": "room temperature", "data": [{"smiles": "O=C(O)c1ccccc1O", "note": "[Salicylic acid, 2-hydroxybenzoic acid]", "values": [{"measurement": "limit of solubility in water", "value": "approximately 0.2%"}]}]}
